Reference: patent publication US20170127693A1, “NUTRITIONAL COMPOSITIONS CONTAINING BUTYRATE AND USES THEREOF” (Mead Johnson Nutrition Company, priority 2015, published 2017)

Type: physicochemical
Description: The dietary butyrate can comprise a phenylalanine amide derivative of butyric acid. In fact, use of a phenylalanine amide derivative of butyric acid provides for improved organoleptic and physicochemical characteristics as it is an odorless and colorless solid crystalline powder. Furthermore, the purification of phenylalanine amide derivatives of butyric acid may be particularly economical for purification in terms of the cost to purify versus the yield of compound ratio. Accordingly, in certain embodiments, the dietary butyrate may comprise an acid-stable butyrate amide with the amino acid phenylalanine, such as phenylalanine-butyramide (“FBA”). […] Moreover, the solubility of FBA in water is satisfactory as it produces clear solutions up to the concentration 0.1 M and suspensions at higher concentrations. Accordingly, FBA is a suitable form of dietary butyrate that may be incorporated into powdered nutritional compositions that are to be reconstituted with water or some other type of liquid.

## phenylalanine-butyramide [FBA]
  solubility in water (concentration up to which clear solutions are produced): ≤ 100 mM
  stability to acids and alkalis: stable to acids and alkalis
